Assay results from patent US8288158B2, “Stem cells modified to facilitate threonine catabolism” (Board of Regents, The University of Texas System, priority 2009, dated 2012).

Legend:
morula-staged embryos = experiment: Early mouse embryo development (morula to blastocyst) in culture with 3-HNV; assay type: cell-based
Experimental: The availability of 3-HNV as a cell-permeable threonine analog facilitated experiments using living mouse embryos. Before testing the effects of 3-HNV on early mouse embryo development, in situ hybridization and immunohistochemical staining assays were performed to investigate the expression pattern of both TDH mRNA and TDH enzyme (16). […] Knowing that the ICM represents the in vivo source of ES cells (17), we hypothesized that the early development of mouse embryos might be inhibited by 3-HNV. […] These studies indicate that ICM cells of the early mouse embryo, like cultured mouse ES cells, are critically dependent upon threonine catabolism.
• 1. B. Alberts et al., Molecular Biology of the Cell (Garland Publishing, Inc., New York, ed. March, 2007), pp. 1-1392. • 2. A. G. Smith, Annu. Rev. Cell Dev. Biol. 17, 435 (2001). • 3. B. P. Tu et al., Proc. Natl. Acad. Sci. U.S.A. 104, 16886 (2007). • 4. L. Warren, J. M. Buchanan, J. Biol. Chem. 229, 613 (1957). • H. Weissbach, A. Peterkofsky, B. G. Redfield, H. Dickerman, J. Biol. Chem. 238, 3318 (1963). • 6. E. A. Phear, D. M. Greenberg, J. Am. Chem. Soc. 79, 3737 (1957). • 7. Total RNA was extracted with RNA STAT-60 (Tel-Test) and converted into cDNA with oligo(dT) primer using the SuperScript first-strand synthesis kit (Invitrogen). PCR was performed on an AB 7900HT fast real-time PCR system (Applied Bioscience) using a TDH specific primer pair. • 8. R. A. Dale, Biochim. Biophys. Acta. 544, 496 (1978). • 9. TDH cDNA with an in-frame Flag tag sequence fused to the carboxyl terminus of the enzyme was cloned into mammalian expression vector pcDNA3.1 at EcoR1/Xho1 sites. The resultant vector was transfected into 293T cells using Lipofectamine 2000 reagent (Invitrogen). Stable transformants were selected in media containing 500 μg/ml G418 and characterized by western blotting analysis using anti-Flag antibody (Sigma). To extract mitochondrial protein, cells were homogenized in the buffer containing 10 mM Tris-HCl (pH 7.5), 250 mM sucrose and 2 mM EDTA on ice with a glass pestle douncer. Mitochondria were isolated from homogenates through a two-step differential centrifugation procedure at 600 and 11,000 g for 10 m each at 4° C. Mitochondrial protein was then extracted in 100 mM potassium phosphate buffer (pH 7.4) containing 0.1% NP-40, 10 mM DTT and 1× protease inhibitor cocktail (Sigma). TDH activity was determined by measuring the rate of formation of NADH at 25° C. The assay mixture contained 100 mM Tris-HCl (pH 8.0), 25 mM L-threonine, 5 mM NAD and 25 mM NaCl in a final volume of […] The reaction was initiated by the addition of mitochondrial protein extract, and absorbance of the reaction mixture at 340 nM was recorded continuously on a microplate reader. • 10. […]

mouse ES cells = experiment: ES cell colony formation in normal or threonine-deficient medium with 3-HNV; assay type: cell-based; details: varying levels of 3-HNV
Experimental: Instead of the normal, 400 uM level of glycine, threonine-deficient medium was supplemented with 4 mM glycine. ES cells subjected to this threonine-deficient, glycine-enriched medium grew no better than those subjected to the threonine drop out medium itself. It is possible that ES cells are unable to deliver the supplemented glycine to mitochondria in order to feed the glycine cleavage system and folate charging. Alternatively, it is also possible that TDH-mediated production of acetyl-CoA is equally important to the HFB-like metabolic state. This alternative interpretation is consistent with the observation that among all metabolites that decline in abundance most precipitously as a function of the conversion of ES cells into differentiating embryoid bodies, acetyl-CoA was second only to the purine intermediate AICAR. In order to investigate these alternatives, we employed 3-hydroxynorvaline (3-HNV), a synthetic variant of threonine containing an extra carbon atom. […]
• 1. […] TDH activity was determined by measuring the rate of formation of NADH at 25° C. The assay mixture contained 100 mM Tris-HCl (pH 8.0), 25 mM L-threonine, 5 mM NAD and 25 mM NaCl in a final volume of […] The reaction was initiated by the addition of mitochondrial protein extract, and absorbance of the reaction mixture at 340 nM was recorded continuously on a microplate reader. • 10. […]

3T3 cells = experiment: 3T3 cell growth with 3-HNV; assay type: cell-based
Experimental: (§1) Instead of the normal, 400 uM level of glycine, threonine-deficient medium was supplemented with 4 mM glycine. ES cells subjected to this threonine-deficient, glycine-enriched medium grew no better than those subjected to the threonine drop out medium itself. It is possible that ES cells are unable to deliver the supplemented glycine to mitochondria in order to feed the glycine cleavage system and folate charging. Alternatively, it is also possible that TDH-mediated production of acetyl-CoA is equally important to the HFB-like metabolic state. This alternative interpretation is consistent with the observation that among all metabolites that decline in abundance most precipitously as a function of the conversion of ES cells into differentiating embryoid bodies, acetyl-CoA was second only to the purine intermediate AICAR. In order to investigate these alternatives, we employed 3-hydroxynorvaline (3-HNV), a synthetic variant of threonine containing an extra carbon atom. It is known that the TDH enzyme can […] this threonine analog, yet instead of producing glycine and acetyl-CoA, catabolism of 3-HNV yields glycine and propionyl-CoA (15). ES cells were cultured in either normal or threonine-deficient medium supplemented with varying levels of 3-HNV. […] The inhibitory effect of 3-HNV was not observed on the growth of HeLa, MEF or 3T3 cells.

MEF cells = experiment: MEF cell growth with 3-HNV; assay type: cell-based, mouse
Experimental: as §1

HeLa cells = experiment: HeLa cell growth with 3-HNV; assay type: cell-based
Experimental: as §1

In the case of `CCC(O)[C@H](N)C(=O)O` (stereo partly drawn) [3-HNV, 3-hydroxynorvaline], the “conversion of morula-staged embryos into cavitated blastocysts” value (from here on “conversion”) (morula-staged embryos; 100 uM 3-HNV) is reported as “A more modest degree of inhibition”, the “conversion” value (morula-staged embryos; 300 uM 3-HNV) is reported as “blocked the conversion of morula-staged embryos into cavitated blastocysts” and the “conversion” value (morula-staged embryos; 1 mM 3-HNV) is reported as “blocked the conversion of morula-staged embryos into cavitated blastocysts”. For the same molecule, the “embryo development with threonine supplementation” value (morula-staged embryos; 1 mM 3-HNV, medium supplemented by 4 mM threonine) was “Complete rescue of normal development”, the “ES cell colony formation” value (mouse ES cells; normal culture medium) was “inhibited ES cell colony formation” and the “complementation of the absence of threonine (ES cell colony formation)” value (mouse ES cells; threonine-deficient medium) was “fail to complement the absence of threonine”. For the same molecule, the “inhibitory effect on cell growth” value (3T3 cells) was “not observed”, the “inhibitory effect on cell growth” value (MEF cells) was “not observed” and the “inhibitory effect on cell growth” value (HeLa cells) was “not observed”.
